Data published in patent US10995068B2, “Synthetic sphingolipid-like molecules, drugs, methods of their synthesis and methods of treatment” (The Regents of the University of California, priority 2015, dated 2021).

Legend:
[1] = system: subcutaneous SW620 xenograft tumors; assay: SW620 xenograft study in nude mice; type: in vivo
Protocol: In even another exemplary study, anti-neoplasm potency of the constrained pyrrolidine sphingolipid-like compounds in xenograft tumor animal studies. Nude mice bearing subcutaneous SW620 xenograft tumors were treated daily with 10 mg/kg FTY720 or 20 mg/kg of compounds 5 or 15 by intraperitoneal injection. […] Furthermore, these compounds retain many of the beneficial abilities of FTY720, such as, for example water solubility, oral bioavailability, and anti-tumor activity but no longer trigger bradycardia. Thus, these compounds are ideal for medicaments and treatments for neoplasms.
SW620 and SW480 xenograft studies: For SW620 xenograft studies, two and one half million luciferase-expressing SW620 colon cancer cells suspended in PBS with 2% FCS are injected subcutaneously in the flank of 7 week old male nude mice (Charles Rivers Labs, Crl:NU(NCr)-Foxn1nu). When tumors reached 100 mm^3 in volume, mice are assigned to groups with matched average tumor volumes and animal weights. Four groups containing 7 mice are treated intraperitoneally with either vehicle (0.9% saline), 10 mg/kg FTY720, or 20 mg/kg compound 5 or compound 15. Tumor length and width are measured with calipers at 7 and 11 days of treatment. Tumor volume is calculated using the formula volume (mm^3)=length [mm]×(width [mm])^2×0.52. The average fold change in the volume of each tumor over time is shown.

[2] = system: luciferase-expressing SW620 xenografts; assay: Luciferase-expressing SW620 xenografts treated with SH-BC-893; type: in vivo, mice; settings: for SW620 tumors by bioluminescence imaging, caliper measurements and tumor mass at sacrifice: luciferase-expressing SW620 xenografts in mice, SH-BC-893 20 mg/kg i.p.
Protocol: In many embodiments, exemplary experimentation was carried out to determine whether azacyclic constrained sphingolipid-lipid molecules inhibited neoplastic growth in vivo. To carry out this experimentation, luciferase-expressing SW620 xenografts were generated in mice.
In vivo studies. Experiments conducted in mice were performed in accordance with the Institutional Animal Care and Use Committee of University of California, Irvine following a power analysis conducted in consultation with the Biostatistics Shared Resource of Chao Family Comprehensive Cancer Center at UCI. Xenografts were produced by injecting 5 million cells subcutaneously in the flank of 10-16 week-old male or female NSG mice. Prostate isografts were produced in the same manner but in male 6-8 wk old C57BL/6 mice. Once tumors reached 100 mm^3, SH-BC-893 was administered by intraperitoneal (i.p.) injection or oral gavage as indicated. Tumor volume was calculated using the formula, volume (mm^3)=length [mm]×(width [mm])^2×0.52; BLI was measured using an IVIS imaging system (Xenogen). To generate pDKO mice on the C57BL6 background, Pten^flox mice (stock No. 0045597) and p53^flox mice (stock No. 008462) were obtained from the Jackson Laboratory and PB-Cre4 mice (strain #01XF5) were obtained from the NCI-Frederick Mouse Repository. Age-matched cohorts of pDKO males were generated by in vitro fertilization executed with the assistance of the Transgenic Mouse Facility at UC Irvine. Treatment was begun at 6-7 wks of age. […] Tumor samples were processed and imaged by the Pathology Research Services Core Facility at UC Irvine. Blood chemistry was analyzed by IDEXX BioResearch and complete blood counts were performed using a Hemavet hematology system.

S1P receptor 1 = biological target: T1, S1P receptor 1 (Homo sapiens, UniProt P21453); assay: S1P receptor activation in CHO cells, S1P1; type: cell-based; settings: CHO cells over-expressing human S1P1, 10 min stimulation, Western blot
T1 construct: expressed in transfected cells
Text: (§1) Phosphorylation may have effects on S1P receptor activity that could cause bradycardia. Bradycardia, the dose-limiting toxicity that prevents the use of FTY720 in cancer patients, stems from FTY720-P's actions on S1P receptors 1 and 3. (Camm, J., et al. (2014) Am. Heart J. 168, 632-644; Cohen, J. A., Chun, J. (2011) Ann. Neurol. 69, 759-777; Sanna, M. G., et al. (2004) J. Biol. Chem. 279, 13839-13848; the disclosures of which are incorporated herein by reference). Phosphorylation by sphingosine kinase may make compounds competent to activate S1P receptors. FTY720, for example, when phosphorylated is known to activate S1P receptors 1 and 3. Because compound 5 could be phosphorylated, the activity of compound 5 and its phosphate 5-P (FIG. 28) on S1P receptors was evaluated (FIG. 32).
(§2) 51P1-5 activation: Chinese hamster ovary (CHO) cells stably over-expressing the different human 51P receptor subtypes are used. S1P1, S1P4 and S1P5 overexpressing CHO cells are cultured in medium containing alpha-MEM supplemented with 10% FBS, 50 μg/ml gentamycin and 0.5 mg/ml G418. S1P2 and S1P3 overexpressing CHO cells are cultured in RPMI containing 10% FBS, 50 μg/ml gentamycin and 0.5 mg/ml G418. Prior to stimulation, cells are rendered serum-free for 24 h. Stimulation is carried out for 10 min in serum-free DMEM containing 0.1 mg/ml of fatty-acid free BSA in the absence or presence of the various compounds or 51P. Protein lysates are prepared using a buffer containing (50 mM Tris pH 7.4, 150 mM NaCl, 10% glycerol, 1% Triton X-100, 2 mM EDTA, 2 mM EGTA, 40 mM β-glycerophosphate, 50 mM sodium fluoride, 10 mM sodium pyrophosphate, 2 mM dithiothreitol, 0.2 mM sodium orthovanadate). Cells are homogenized by one 5 sec burst in a MSE Ultrasonic Disintegrator, centrifuged and taken for protein determination. Equal amounts of protein are separated by SDS-PAGE (10% polyacrylamide gel), transferred to nitrocellulose membranes and subjected to Western blot analysis. Bands were stained using IRDye® secondary antibodies and visualized by the LICOR Odyssey® Fc Imaging system. Antibodies against phospho-Thr202/Tyr204-p42/p44-MAPK and phospho-Ser PKC substrate are from Cell Signaling, Frankfurt am Main, Germany. Polyclonal antisera against total p42 and total p44 were generated and characterized as previously described. (Huwiler, A.; Pfeilschifter, J. Br. J. Pharmacol. 1994, 113, 1455-1463; disclosure of which is incorporated herein by reference).

S1P receptor 2 = biological target: T2, S1P receptor 2 (Homo sapiens, UniProt O95136); assay: S1P receptor activation in CHO cells, S1P2; type: cell-based; settings: CHO cells over-expressing human S1P2
T2 construct: expressed in transfected cells
Text: as §1, §2

[3] = system: 4F2 cell-surface antigen heavy chain (4F2hc); assay: Surface 4F2hc nutrient transporter expression; type: cell-based, human; settings: treatment at IC50 and at twice this dose, 6 h; efficacy similar to FTY720
Text: The broad activity of the embodiments of the inventions described herein is consistent with a bioenergetic mechanism of action against cancer cells that includes nutrient transporter down-regulation, as described supra. Thus, to directly examine the constrained pyrrolidine sphingolipid-like molecules on nutrient transport, the surface-levels of the amino acid transporter associated protein 4F2 cell-surface antigen heavy chain (4F2hc) was examined following treatment with several analogues at their IC50 and at twice this dose.
Nutrient transporter expression: Surface 4F2hc expression is measured at 6 h using phycoerythrin (PE)-conjugated mouse anti-human 4F2hc antibody (BD Pharmingen, cat #556077); analysis is restricted to viable cells. PE conjugated Mouse IgG1, k (cat #555749, BD Pharmingen) is used as an isotype control. Cells are analyzed on a BD LSR II flow cytometer and with FlowJo software (Treestar).

T1 sequence (P21453 whole entry): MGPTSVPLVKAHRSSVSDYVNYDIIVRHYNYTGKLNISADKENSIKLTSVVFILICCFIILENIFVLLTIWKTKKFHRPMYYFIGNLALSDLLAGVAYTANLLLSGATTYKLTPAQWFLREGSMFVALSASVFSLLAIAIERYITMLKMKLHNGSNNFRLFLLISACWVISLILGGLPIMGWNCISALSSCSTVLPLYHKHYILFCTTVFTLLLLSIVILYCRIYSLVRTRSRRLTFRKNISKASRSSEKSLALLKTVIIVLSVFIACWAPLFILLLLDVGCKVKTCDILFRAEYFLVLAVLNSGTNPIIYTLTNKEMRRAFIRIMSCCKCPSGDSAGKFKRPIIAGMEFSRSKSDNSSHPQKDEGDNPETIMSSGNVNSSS
T2 sequence (O95136 whole entry): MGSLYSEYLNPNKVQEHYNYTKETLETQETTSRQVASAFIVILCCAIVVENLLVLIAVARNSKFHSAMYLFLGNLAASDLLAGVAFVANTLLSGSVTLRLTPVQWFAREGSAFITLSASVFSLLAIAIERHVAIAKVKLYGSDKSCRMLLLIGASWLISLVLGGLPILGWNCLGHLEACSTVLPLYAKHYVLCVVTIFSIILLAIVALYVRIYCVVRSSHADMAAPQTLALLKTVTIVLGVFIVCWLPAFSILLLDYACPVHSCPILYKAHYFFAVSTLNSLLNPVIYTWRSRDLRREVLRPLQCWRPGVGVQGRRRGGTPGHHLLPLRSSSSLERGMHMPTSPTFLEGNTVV

| SMILES | tumor growth of SW620 xenografts ([1]; 10 mg/kg daily by intraperitoneal injection) | SW620 tumors by bioluminescence imaging, caliper measurements and tumor mass at sacrifice [2] | activation of S1P receptor 1 (S1P receptor 1) | activation of S1P receptor 2 (S1P receptor 2) | 4F2hc surface levels [3] | tumor growth of SW620 xenografts ([1]; 20 mg/kg daily by intraperitoneal injection) | body weight of treated mice ([2]; SW620 xenograft mice) |
| --- | --- | --- | --- | --- | --- | --- | --- |
| CCCCCCCCc1ccc(CCC(N)(CO)CO)cc1.Cl [FTY720, 2-Amino-2-[2-(4-octylphenyl)ethyl]propane 1,3-diol hydrochloride, reference compound] | inhibited tumor growth | reduced to a similar degree | – | – | – | – | – |
| CCCCCCCCc1ccc([C@@H]2CCN[C@H]2CO)cc1.Cl [Compound 6] | – | – | weakly activated | failed to activate | reduced 4F2hc surface levels | – | – |
| CCCCCCCCc1ccc([C@H]2CCN[C@@H]2CO)cc1.Cl [Compound 5, (2S,3R)-2-(hydroxymethyl)-3-(4-octylphenyl)Pyrrolidinium chloride] | – | reduced to a similar degree | weakly activated | failed to activate | reduced 4F2hc surface levels | inhibited tumor growth | Mild weight loss |
